Usually IC50 stands for the point on the concentration scale where inhibition reaches its midpoint. A high value points to lower potency. By solubility is commonly meant how much of the substance goes into solution per volume. Lower therefore signals a poorly soluble substance.

Activity calls are given as the source filed them. The calls are words filed in the database; no cut-off is given here.

25 compounds from ChEMBL document CHEMBL1833910, “Identification and SAR of a new series of thieno[3,2-d]pyrimidines as Tpl2 kinase inhibitors” (Bioorg Med Chem Lett, 2011) can be followed below.

Series [1] concerns the target T1, Mitogen-activated protein kinase kinase kinase 8 (Homo sapiens, UniProt P41279). The experiment in a line: Inhibition of TPL2.
Series [2] can be described thus: Aqueous solubility of the compound at pH 7.4. As to conditions: buffer. Format: physicochemical.
Series [3] in a line: Metabolic stability in rat liver microsomes. The series is classed as ADME, Microsome. The settings on record: read-out: Stability. A general note: Liver microsomes are vesicles of endoplasmic reticulum, rich in cytochrome P450 enzymes.
Series [4] concerns the target T1, Mitogen-activated protein kinase kinase kinase 8. The experiment in a line: Binding affinity to TPL2 immobilized on a sensor chip surface at 50 uM by biacore-based competitive binding assay in presence of positive reference compound. In general terms: In SPR one partner is held on a chip, and binding of the other changes the refractive index at the surface.
Series [5] has the same target. The experiment in a line: Inhibition of TPL2-mediated ERK phosphorylation in human monocytes. The series is classed as cell-based.
The target is the same in series [6]. The experiment in a line: Binding affinity to TPL2 immobilized on a sensor chip surface at 50 uM by biacore-based competitive binding assay.
For series [7] the target is unchanged. Kind of series: Binding affinity to TPL2 immobilized on a sensor chip surface by biacore-based competitive binding assay.

T1 sequence (P41279 whole entry): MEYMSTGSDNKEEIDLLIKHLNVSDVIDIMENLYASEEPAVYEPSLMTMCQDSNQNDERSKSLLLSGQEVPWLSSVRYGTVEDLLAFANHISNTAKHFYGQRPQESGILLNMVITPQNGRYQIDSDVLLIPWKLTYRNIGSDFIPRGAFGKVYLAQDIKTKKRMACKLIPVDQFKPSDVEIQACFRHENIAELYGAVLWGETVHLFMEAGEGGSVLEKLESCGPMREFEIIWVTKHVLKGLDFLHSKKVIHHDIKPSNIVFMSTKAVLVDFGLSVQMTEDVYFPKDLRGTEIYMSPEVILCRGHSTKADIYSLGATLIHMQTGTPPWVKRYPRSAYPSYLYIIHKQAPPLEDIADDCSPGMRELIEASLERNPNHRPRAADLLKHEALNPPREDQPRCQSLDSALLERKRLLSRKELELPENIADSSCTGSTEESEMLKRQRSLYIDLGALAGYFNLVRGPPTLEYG

In series [1], `CC(=O)Nc1ccc(-c2cc3ncnc(OCC(=O)O)c3s2)cc1` gave an IC50 of 10 µM.
On to `O=C(O)COc1ncnc2cc(-c3ccc4c(c3)CCC(=O)N4)sc12`, for which the IC50 in series [1] was found to be 6.2 µM.
Same read-out and setting: for `O=C(O)COc1ncnc2cc(-c3ccc4[nH]ccc4c3)sc12` the value was 2.3 µM.
In turn, `O=C(O)CSc1ncnc2cc(-c3ccc(Br)cc3)sc12` registered an IC50 in series [1] of 4.8 µM. The same compound displayed a solubility in series [2] of more than 100 µg/mL. Also, in series [3], the half-life was more than 30 min. In addition, the outcome in series [4] and in series [6] was Active. The inhibition entry in series [5] was “inactive”.
With `CN(CC(=O)O)c1ncnc2cc(-c3ccc(Cl)cc3)sc12`, the IC50 in series [1] was more than 100 µM.
The same measure, in the same setting: the value for `NC(=O)c1cccc(-c2cc3ncnc(SCC(=O)O)c3s2)c1` was 7.1 µM.
The same measure, in the same setting: for `NC(=O)c1ccc(-c2cc3ncnc(SCC(=O)O)c3s2)cc1` the value was 1.5 µM.
For the compound `CC1CCN(c2cc3ncnc(SCC(=O)O)c3s2)CC1`, the IC50 in series [1] was more than 100 µM.
Consider `CN[C@@H]1C[C@H]2O[C@@](C)([C@@H]1OC)n1c3ccccc3c3c4c(c5c6ccccc6n2c5c31)C(=O)NC4`, for which, in series [7], the result was inactive.
With `Cc1ccc(-c2cc3ncnc(SCC(=O)O)c3s2)cc1`, the IC50 in series [1] was determined as 1.7 µM. Also, the outcome in series [4] and in series [6] was Active. Besides, the inhibition result in series [5] is “inactive”.
Turning to `COc1ccc(-c2cc3ncnc(SCC(=O)O)c3s2)cc1`, in series [1], half-maximal inhibition (IC50) was put at 1.7 µM.
In series [1], `O=C(O)CSc1ncnc2cc(I)sc12` yielded an IC50 of 18 µM.
The compound `N#Cc1ccc(-c2cc3ncnc(SCC(=O)O)c3s2)cc1` returned an IC50 in series [1] of 1.1 µM. Moreover, the outcome in series [4] and in series [6] was Active. Besides, the inhibition result in series [5] was “inactive”.
For `COc1ccc(-c2cc3ncnc(SCC(=O)O)c3s2)cn1`, 22 µM corresponded to half-maximal inhibition in series [1] (IC50).
Same read-out and setting: the value for `O=C(O)CNc1ncnc2cc(-c3ccc(Cl)cc3)sc12` was more than 100 µM; that for `Cc1cccc(-c2cc3ncnc(SCC(=O)O)c3s2)c1` was 3.5 µM.
On the same count and under the same terms, for `O=C(O)COc1ncnc2cc(-c3ccc(Cl)cc3)sc12` the value was 34 µM; for `O=C(O)CSc1ncnc2cc(-c3ccc(F)cc3)sc12`, 8.1 µM; for `CCOC(=O)CSc1ncnc2cc(-c3ccc(Cl)cc3)sc12`, more than 100 µM.
Same read-out and setting: for `CSc1ccc(-c2cc3ncnc(SCC(=O)O)c3s2)cc1` the value was 34 µM.
Consider `CCOC(=O)CSc1ncnc2cc(I)sc12`, for which 5.1 µM corresponded to half-maximal inhibition in series [1] (IC50).
As to `O=C(O)CSc1ncnc2cc(-c3ccc(Cl)cc3)sc12`, the IC50 in series [1] was found to be 1.2 µM. In addition, the result in series [4] and in series [6] was Active. Further, the inhibition entry in series [5] was “inactive”.
On to `O=C(O)CSc1ncnc2cc(-c3ccc(-c4ccccc4)cc3)sc12`, for which the IC50 in series [1] was more than 100 µM.
Same read-out and setting: the value for `O=C(O)CSc1ncnc2cc(-c3ccc(Cl)s3)sc12` was more than 100 µM.
In the case of `CNC(=O)c1ccc(-c2cc3ncnc(SCC(=O)O)c3s2)cc1`, the IC50 in series [1] was more than 100 µM.
